Measurements as given in PubChem BioAssay AID1259407 (Chemical Carcinogenesis Research Information System (CCRIS), 2018).
Calls of active or inactive are those of the source. No rule for the calls is given here.

Tested on: CCRIS mutagenicity, Ames/micronucleus/aberration tests
Assay: CCRIS mutagenicity studies
[1] = Test System: AMES SALMONELLA TYPHIMURIUM, Strain/Indicator: TA98, Metabolic Activation: NONE, Method: PREINCUBATION
[2] = Test System: AMES SALMONELLA TYPHIMURIUM, Strain/Indicator: TA100, Metabolic Activation: NONE, Method: PREINCUBATION
[3] = Test System: AMES SALMONELLA TYPHIMURIUM, Strain/Indicator: TA98, Metabolic Activation: NONE, Method: STANDARD PLATE
[4] = Test System: AMES SALMONELLA TYPHIMURIUM, Strain/Indicator: TA98, Metabolic Activation: RAT, LIVER, S-9, AROCLOR 1254, Method: STANDARD PLATE
[5] = Test System: AMES SALMONELLA TYPHIMURIUM, Strain/Indicator: TA98, Metabolic Activation: RAT LIVER S-9, PHENOBARBITAL AND BETA-NAPHTHOFLAVONE, Method: PREINCUBATION
[6] = Test System: AMES SALMONELLA TYPHIMURIUM, Strain/Indicator: TA100, Metabolic Activation: NONE, Method: STANDARD PLATE
[7] = Test System: AMES SALMONELLA TYPHIMURIUM, Strain/Indicator: TA100, Metabolic Activation: RAT LIVER S-9, PHENOBARBITAL AND BETA-NAPHTHOFLAVONE, Method: PREINCUBATION
[8] = Test System: AMES SALMONELLA TYPHIMURIUM, Strain/Indicator: TA100, Metabolic Activation: RAT, LIVER, S-9, AROCLOR 1254, Method: STANDARD PLATE
[9] = Test System: AMES SALMONELLA TYPHIMURIUM, Strain/Indicator: TA1535, Metabolic Activation: NONE, Method: PREINCUBATION
[10] = Test System: AMES SALMONELLA TYPHIMURIUM, Strain/Indicator: TA1535, Metabolic Activation: NONE, Method: STANDARD PLATE
[11] = Test System: AMES SALMONELLA TYPHIMURIUM, Strain/Indicator: TA1535, Metabolic Activation: RAT LIVER S-9, PHENOBARBITAL AND BETA-NAPHTHOFLAVONE, Method: PREINCUBATION
[12] = Test System: AMES SALMONELLA TYPHIMURIUM, Strain/Indicator: TA1537, Metabolic Activation: NONE, Method: PREINCUBATION
[13] = Test System: AMES SALMONELLA TYPHIMURIUM, Strain/Indicator: TA1537, Metabolic Activation: RAT LIVER S-9, PHENOBARBITAL AND BETA-NAPHTHOFLAVONE, Method: PREINCUBATION
[14] = Test System: AMES SALMONELLA TYPHIMURIUM, Strain/Indicator: TA1538, Metabolic Activation: NONE, Method: PREINCUBATION
[15] = Test System: AMES SALMONELLA TYPHIMURIUM, Strain/Indicator: TA1538, Metabolic Activation: RAT LIVER S-9, PHENOBARBITAL AND BETA-NAPHTHOFLAVONE, Method: PREINCUBATION
[16] = Test System: Mouse lymphoma, Strain/Indicator: L5178Y (tk+/tk-), Metabolic Activation: Rat, Liver, S-9, Aroclor 1254, Method: Suspension/plate

In the case of `O[C@H]1[C@@H]2O[C@@H]2c2c(ccc3cc4ccc5ccccc5c4nc23)[C@@H]1O`, the mutagenic call [1] is reported as “active; positive”, the mutagenic call [2] is reported as “active; positive” and the mutagenic call (Test System: CHINESE HAMSTER V-79, Strain/Indicator: V-79/8-AZAGUANINE, Metabolic Activation: NONE, Method: STANDARD PLATE) is reported as “active; positive”.
In the case of `CC(=O)N(O)c1ccc(Sc2ccccc2)cc1`, the mutagenic call [3] is reported as “active; positive” and the mutagenic call [4] is reported as “active; positive”.
In the case of `C1CC[C@H]2O[C@H]2C1`, the mutagenic call (Test System: AMES SALMONELLA TYPHIMURIUM, Strain/Indicator: TA98, Metabolic Activation: HAMSTER, LIVER, S-9, AROCLOR 1254, Method: STANDARD PLATE) is reported as “active; positive”, the mutagenic call [1] is reported as “inactive; negative” and the mutagenic call [5] is reported as “inactive; negative”. For the same molecule, the mutagenic call [4] was “active; positive”, the mutagenic call (Test System: AMES SALMONELLA TYPHIMURIUM, Strain/Indicator: TA100, Metabolic Activation: HAMSTER, LIVER, S-9, AROCLOR 1254, Method: STANDARD PLATE) was “active; positive” and the mutagenic call [2] was “active; positive”. The mutagenic call [6] was “active; positive”, the mutagenic call [7] was “active; positive” and the mutagenic call [8] was “active; positive”. The mutagenic call [9] was “active; positive”, the mutagenic call [10] was “active; positive” and the mutagenic call [11] was “active; positive”. For the same molecule, the mutagenic call [12] was “inactive; negative”, the mutagenic call [13] was “inactive; negative” and the mutagenic call [14] was “inactive; negative”. The mutagenic call [15] was “inactive; negative”, the mutagenic call (Test System: E. COLI, Strain/Indicator: WP2UVRA, Metabolic Activation: NONE, Method: PREINCUBATION) was “inactive; negative” and the mutagenic call (Test System: E. COLI, Strain/Indicator: WP2UVRA, Metabolic Activation: RAT LIVER S-9, PHENOBARBITAL AND BETA-NAPHTHOFLAVONE, Method: PREINCUBATION) was “active; positive”. For the same molecule, the mutagenic call (Test System: MOUSE LYMPHOMA, Strain/Indicator: L5178Y (TK+/TK-), Metabolic Activation: NONE, Method: SUSPENSION/PLATE) was “active; positive. reevaluation of results: positive” and the mutagenic call [16] was “active; positive”.
For `CC(O)CBr` (stereo unspecified), the mutagenic call (Test System: AMES SALMONELLA TYPHIMURIUM, Strain/Indicator: TA97, Metabolic Activation: HAMSTER, LIVER, S-9, AROCLOR 1254 (10%), Method: PREINCUBATION) was “inactive; negative”, the mutagenic call (Test System: AMES SALMONELLA TYPHIMURIUM, Strain/Indicator: TA97, Metabolic Activation: NONE, Method: PREINCUBATION) was “inactive; negative” and the mutagenic call (Test System: AMES SALMONELLA TYPHIMURIUM, Strain/Indicator: TA97, Metabolic Activation: RAT, LIVER, S-9, AROCLOR 1254 (10%), Method: PREINCUBATION) was “inactive; negative”. For the same molecule, the mutagenic call (Test System: AMES SALMONELLA TYPHIMURIUM, Strain/Indicator: TA98, Metabolic Activation: HAMSTER, LIVER, S-9, AROCLOR 1254 (10%), Method: PREINCUBATION) was “inactive; negative”, the mutagenic call (Test System: AMES SALMONELLA TYPHIMURIUM, Strain/Indicator: TA98, Metabolic Activation: RAT, LIVER, S-9, AROCLOR 1254 (10%), Method: PREINCUBATION) was “inactive; negative” and the mutagenic call (Test System: AMES SALMONELLA TYPHIMURIUM, Strain/Indicator: TA100, Metabolic Activation: HAMSTER, LIVER, S-9, AROCLOR 1254 (10%), Method: PREINCUBATION) was “inactive; negative”. The mutagenic call [2] was “active; positive”, the mutagenic call (Test System: AMES SALMONELLA TYPHIMURIUM, Strain/Indicator: TA100, Metabolic Activation: RAT, LIVER, S-9, AROCLOR 1254 (10%), Method: PREINCUBATION) was “active; positive” and the mutagenic call (Test System: AMES SALMONELLA TYPHIMURIUM, Strain/Indicator: TA1535, Metabolic Activation: HAMSTER, LIVER, S-9, AROCLOR 1254 (10%), Method: PREINCUBATION) was “active; positive”. For the same molecule, the mutagenic call [9] was “active; positive” and the mutagenic call (Test System: AMES SALMONELLA TYPHIMURIUM, Strain/Indicator: TA1535, Metabolic Activation: RAT, LIVER, S-9, AROCLOR 1254 (10%), Method: PREINCUBATION) was “active; positive”.
In the case of `CCC(C)OC(=O)C=Cc1ccc([N+](=O)[O-])o1` (stereo unspecified), the mutagenic call [1] is reported as “active; positive”.
`CC1(C)C2CCC3(CO3)C1C2` (stereo unspecified) was tested, and the mutagenic call [6] was “inactive; negative” and the mutagenic call [10] was “inactive; negative”.
For `O=CNc1nc(-c2ccc([N+](=O)[O-])cc2)cs1`, the mutagenic call (Test System: AMES SALMONELLA TYPHIMURIUM, Strain/Indicator: TA98, Metabolic Activation: RAT, LIVER, S-9, KC500 OR PHENOBARBITAL, Method: LIQUID SUSPENSION) was “active; positive” and the mutagenic call (Test System: AMES SALMONELLA TYPHIMURIUM, Strain/Indicator: TA100, Metabolic Activation: RAT, LIVER, S-9, KC500 OR PHENOBARBITAL, Method: LIQUID SUSPENSION) was “active; positive”.
In the case of `CCCCCCCCCCSCn1cc[n+](C)c1`, the mutagenic call [3] is reported as “inactive; negative”, the mutagenic call [4] is reported as “inactive; negative” and the mutagenic call [6] is reported as “inactive; negative”. For the same molecule, the mutagenic call [8] was “active; positive”, the mutagenic call [10] was “inactive; negative” and the mutagenic call (Test System: AMES SALMONELLA TYPHIMURIUM, Strain/Indicator: TA1535, Metabolic Activation: RAT, LIVER, S-9, AROCLOR 1254, Method: STANDARD PLATE) was “active; positive”. The mutagenic call (Test System: AMES SALMONELLA TYPHIMURIUM, Strain/Indicator: TA1537, Metabolic Activation: NONE, Method: STANDARD PLATE) was “inactive; negative”, the mutagenic call (Test System: AMES SALMONELLA TYPHIMURIUM, Strain/Indicator: TA1537, Metabolic Activation: RAT, LIVER, S-9, AROCLOR 1254, Method: STANDARD PLATE) was “inactive; negative” and the mutagenic call (Test System: AMES SALMONELLA TYPHIMURIUM, Strain/Indicator: TA1538, Metabolic Activation: NONE, Method: STANDARD PLATE) was “inactive; negative”. The mutagenic call (Test System: AMES SALMONELLA TYPHIMURIUM, Strain/Indicator: TA1538, Metabolic Activation: RAT, LIVER, S-9, AROCLOR 1254, Method: STANDARD PLATE) was “inactive; negative”.
With `CCN1CCNC(=O)C1=O` the mutagenic call [1] was “inactive; negative”, the mutagenic call [5] was “inactive; negative” and the mutagenic call [2] was “inactive; negative”. The mutagenic call [7] was “inactive; negative”, the mutagenic call [9] was “inactive; negative” and the mutagenic call [11] was “inactive; negative”. The mutagenic call [12] was “inactive; negative”, the mutagenic call [13] was “inactive; negative” and the mutagenic call [14] was “inactive; negative”. The mutagenic call [15] was “inactive; negative”, the mutagenic call (Test System: E.COLI, Strain/Indicator: WP2UVRA, Metabolic Activation: NONE, Method: PREINCUBATION) was “inactive; negative” and the mutagenic call (Test System: E.COLI, Strain/Indicator: WP2UVRA, Metabolic Activation: RAT LIVER S-9, PHENOBARBITAL AND BETA-NAPHTHOFLAVONE, Method: PREINCUBATION) was “inactive; negative”.
In the case of `CC(=O)N1CCc2cc([N+](=O)[O-])ccc21`, the mutagenic call (End Point: IN VITRO CHROMOSOMAL ABERRATIONS, Test System: CHL CELLS, Metabolic Activation: RAT, LIVER, S-9, SODIUM PHENOBARBITAL AND 5,6-BENZOFLAVONE) is reported as “inactive; negative”.
For `COc1nc(C(Cl)(Cl)Cl)c(Cl)c(OC)c1Cl`, the mutagenic call [16] was “active; positive”.
In the case of `CC(C)(C)NC[C@H](O)COc1ccccc1C1CCCC1`, the mutagenic call [3] is reported as “active; positive”, the mutagenic call [4] is reported as “inactive; negative” and the mutagenic call [6] is reported as “inactive; negative”. The mutagenic call [8] was “inactive; negative”, the mutagenic call (Test System: AMES SALMONELLA TYPHIMURIUM, Strain/Indicator: TA102, Metabolic Activation: NONE, Method: STANDARD PLATE) was “inactive; negative” and the mutagenic call (Test System: AMES SALMONELLA TYPHIMURIUM, Strain/Indicator: TA102, Metabolic Activation: RAT, LIVER, S-9, AROCLOR 1254, Method: STANDARD PLATE) was “inactive; negative”.
